A short description of data set [1]: Oral bioavailability after IV and PO administration. It counts as in vivo. The settings on record: male, Sprague-Dawley, rat, plasma, read-out: Rat % F. On the procedure: The invention encompasses compounds of formula (I) that are orally bioavailable. Oral bioavailability can be determined following both an intravenous (IV) and oral (PO) administration of a test compound.
Oral Bioavailability was determined in the male Sprague-Dawley rat following both IV and PO administration of test compound. Two month-old male rats (250-300 g) were surgically implanted with polyethylene (PE-50) cannula in the jugular vein while under isoflurane anesthesia the day before the in-life phase. Animals were fasted overnight with water ad libitum, then dosed the next day. The dosing regime consisted of either a 5 mg/kg (2.5 mL/kg) IV dose (N=3) administered to the jugular vein cannula, then flushed with saline, or a 10 mg/kg (5 mL/kg) PO dose (N=3) by esophageal gavage. Compounds were formulated with 10% Solutol in 5% dextrose at 2 mg/mL. […]
Compounds were extracted from samples following precipitation of the plasma proteins by methanol. […] Experimental samples were compared to calibration curves prepared in parallel with aged match rat plasma and quantitated with a weighted 1/x linear regression. […]
AUC is calculated from the linear trapezoidal rule by AUC=((C2+C1)/2)×(T2−T1) where C is concentration and T is time.
Pharmacokinetic parameters were calculated by a non-compartmental approach. […]

The nature of data set [2]: Brain uptake (brain penetration after IV administration). To be noted: CF-1, mouse, in vivo, 10 μmol/kg. How it is done: The following assay was employed to determine the brain penetration of compounds encompassed by the present invention.
In-life phase: Test compounds were administered to CF-1 (20-30 g) mice at 10 μmol/kg (4 to 7 mg/kg) following IV administration in the tail vein. Two time-points, 5 and 60 min, were collected post dose. Four mice were harvested for heparinized plasma and non-perfused brains at each time-point for a total of 8 mice per compound.
Analytical phase: Samples were extracted and evaporated to dryness, then reconstituted and injected onto a reverse phase chromatographic column while monitoring the effluent with a triple quadrupole mass spectrometer. Quantitation was then performed with a 1/x^2 weighted fit of the least-squares regression from calibration standards prepared in parallel with the in vivo samples. The lower limit of quantitation (LOQ) is generally 1 ng/mL and 0.5 ng/g for the plasma and brain respectively. Data was reported in micromolar (μM) units. Brain levels were corrected for plasma volumes (16 μL/g).

The test system of data set [3] is A-beta. Kind of data set: Efficacy of compounds to inhibit A-beta concentration (% inhibition vs vehicle control). The settings on record: plasma. It counts as in vivo, rat. On the procedure:
Efficacious compounds of the present invention are those able to decrease the amount of A-beta produced compared to a control, where beta-secretase mediated cleavage is observed and measured in the absence of the compounds. Detection of efficacy can be by analysis of A-beta levels, for example, by immunoassay, fluorometric or chromogenic assay, HPLC, or other means of detection. The efficacy of the compounds of formula (I) was determined as a percentage inhibition corresponding to A-beta concentrations for tissue treated and untreated with compound.
The invention encompasses compounds of formula (I) that are efficacious.

Turning to `CC(=O)NC(Cc1cc(F)cc(F)c1)C(O)CNC1(c2cccc(C(C)(C)C)c2)CCCCC1` (centres unmarked) [Example 197-1, N-[3-[1-(3-tert-Butyl-phenyl)-cyclohexylamino]-1-(3,5-difluoro-benzyl)-2-hydroxy-propyl]-acetamide], the bioavailability in data set [1] turned out to be 20.2%.

In data set [2], `CC(=O)NC(Cc1cc(F)cc(F)c1)C(O)CNC1(c2cccc(C(C)C)c2)CCC(=O)CC1` (centres unmarked) [Example 198-3, N-{1-(3,5-Difluoro-benzyl)-2-hydroxy-3-[1-(3-isopropyl-phenyl)-4-oxo-cyclohexylamino]-propyl}-acetamide] yielded a Kp at 5 min of 0.5 and a Kp at 10 min of 8.4.

`CC(=O)NC(Cc1cc(F)cc(F)c1)C(O)CNC1(c2cccc(C(C)(C)C)c2)CCCCC1` (centres unmarked) [Example 198-1, N-[3-[1-(3-tert-Butyl-phenyl)-cyclohexylamino]-1-(3,5-difluoro-benzyl)-2-hydroxy-propyl]-acetamide]: in data set [2], the Kp at 5 min worked out at 1.7 and the Kp at 10 min turned out to be 3.

In data set [2], `CC(=O)NC(Cc1cc(F)cc(F)c1)C(O)CNC1(c2cccc(-c3ccsc3)c2)CCCCC1` (centres unmarked) [Example 198-4, N-{1-(3,5-Difluoro-benzyl)-2-hydroxy-3-[1-(3-thiophen-3-yl-phenyl)-cyclohexylamino]-propyl}acetamide] gave a Kp at 5 min of 0.7 and a Kp at 10 min of 3.7.

With `CC(=O)NC(Cc1cc(F)cc(F)c1)C(O)CNC1(c2cc(F)cc(C(C)(C)C)c2)CCCCC1` (centres unmarked) [Example 195-10, N-(4-(1-(3-tert-butyl-5-fluorophenyl)cyclohexylamino)-1-(3,5-difluorophenyl)-3-hydroxybutan-2-yl)acetamide], the “Efficacy (% Inhibition, 100 mg/kg) plasma” value in data set [3] is on record as 30%.

These data come from US20060014790A1, “Methods of treatment of amyloidosis using spirocyclohexane aspartyl-protease inhibitors” (priority 2004, published 2006).
